Data on ten compounds can be found in ChEMBL document CHEMBL2057208, “Benzoylbenzimidazole-based selective inhibitors targeting Cryptosporidium parvum and Toxoplasma gondii calcium-dependent protein kinase-1” (Bioorg Med Chem Lett, 2012).

For one test, the system named is Cryptosporidium parvum. The test is described as follows: Antiparasitic activity against Cryptosporidium parvum up to 1 uM. The class given is functional, organism-based.
In a further test the test system is Toxoplasma gondii. The test is described as follows: Antiparasitic activity against Toxoplasma gondii up to 1 uM. The format is functional, organism-based.
Test [1] has as its target Proto-oncogene tyrosine-protein kinase Src (Homo sapiens, UniProt P12931). The test is described as follows: Inhibition of human SRC.
A short description of test [2]: Inhibition of Cryptosporidium parvum CDPK1.
Test [3] addresses T1, Calmodulin-domain protein kinase 1 (Toxoplasma gondii, UniProt Q9BJF5).
T1 sequence (Q9BJF5 whole entry): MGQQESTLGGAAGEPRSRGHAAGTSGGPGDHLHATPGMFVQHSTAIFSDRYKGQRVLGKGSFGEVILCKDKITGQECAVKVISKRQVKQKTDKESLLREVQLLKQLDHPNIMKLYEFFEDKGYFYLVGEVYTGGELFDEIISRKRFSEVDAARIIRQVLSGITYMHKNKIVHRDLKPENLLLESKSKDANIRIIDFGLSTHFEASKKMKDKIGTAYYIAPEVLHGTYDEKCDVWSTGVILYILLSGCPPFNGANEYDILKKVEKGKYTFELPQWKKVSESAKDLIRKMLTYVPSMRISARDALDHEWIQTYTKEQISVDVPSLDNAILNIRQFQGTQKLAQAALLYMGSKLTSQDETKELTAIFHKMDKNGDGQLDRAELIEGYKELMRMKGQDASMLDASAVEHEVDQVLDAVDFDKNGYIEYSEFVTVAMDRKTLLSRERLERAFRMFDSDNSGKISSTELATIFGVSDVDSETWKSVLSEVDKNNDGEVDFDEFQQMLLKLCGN
The test is described as follows: Inhibition of Toxoplasma gondii CDPK1.

The nature of the next test: cells. To be noted: Homo sapiens, CRL8155.
The subject of another test is HL-60. The test is described as follows: cells. To be noted: Homo sapiens.
Test [4] concerns the target Tyrosine-protein kinase ABL1 (Homo sapiens, UniProt P00519). The test is described as follows: Inhibition of human ABL.

Activity calls are given as the source filed them. The rule behind the calls is not given here.

Sequence of Proto-oncogene tyrosine-protein kinase Src (P12931 2-536 limits assumed): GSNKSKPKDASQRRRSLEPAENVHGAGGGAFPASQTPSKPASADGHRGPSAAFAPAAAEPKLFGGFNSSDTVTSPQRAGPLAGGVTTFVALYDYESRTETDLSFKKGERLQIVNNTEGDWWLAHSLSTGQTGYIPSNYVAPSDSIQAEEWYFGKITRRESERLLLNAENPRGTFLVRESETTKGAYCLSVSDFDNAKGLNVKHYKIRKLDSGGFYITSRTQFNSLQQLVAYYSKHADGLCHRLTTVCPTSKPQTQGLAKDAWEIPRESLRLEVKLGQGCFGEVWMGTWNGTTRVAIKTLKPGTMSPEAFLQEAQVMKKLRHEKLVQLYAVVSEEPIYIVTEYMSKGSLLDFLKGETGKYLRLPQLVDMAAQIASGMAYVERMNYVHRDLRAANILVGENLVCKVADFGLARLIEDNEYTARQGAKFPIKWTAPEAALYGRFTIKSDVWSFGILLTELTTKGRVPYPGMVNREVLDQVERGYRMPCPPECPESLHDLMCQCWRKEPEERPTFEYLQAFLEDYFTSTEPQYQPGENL
Sequence of Tyrosine-protein kinase ABL1 (P00519 whole entry): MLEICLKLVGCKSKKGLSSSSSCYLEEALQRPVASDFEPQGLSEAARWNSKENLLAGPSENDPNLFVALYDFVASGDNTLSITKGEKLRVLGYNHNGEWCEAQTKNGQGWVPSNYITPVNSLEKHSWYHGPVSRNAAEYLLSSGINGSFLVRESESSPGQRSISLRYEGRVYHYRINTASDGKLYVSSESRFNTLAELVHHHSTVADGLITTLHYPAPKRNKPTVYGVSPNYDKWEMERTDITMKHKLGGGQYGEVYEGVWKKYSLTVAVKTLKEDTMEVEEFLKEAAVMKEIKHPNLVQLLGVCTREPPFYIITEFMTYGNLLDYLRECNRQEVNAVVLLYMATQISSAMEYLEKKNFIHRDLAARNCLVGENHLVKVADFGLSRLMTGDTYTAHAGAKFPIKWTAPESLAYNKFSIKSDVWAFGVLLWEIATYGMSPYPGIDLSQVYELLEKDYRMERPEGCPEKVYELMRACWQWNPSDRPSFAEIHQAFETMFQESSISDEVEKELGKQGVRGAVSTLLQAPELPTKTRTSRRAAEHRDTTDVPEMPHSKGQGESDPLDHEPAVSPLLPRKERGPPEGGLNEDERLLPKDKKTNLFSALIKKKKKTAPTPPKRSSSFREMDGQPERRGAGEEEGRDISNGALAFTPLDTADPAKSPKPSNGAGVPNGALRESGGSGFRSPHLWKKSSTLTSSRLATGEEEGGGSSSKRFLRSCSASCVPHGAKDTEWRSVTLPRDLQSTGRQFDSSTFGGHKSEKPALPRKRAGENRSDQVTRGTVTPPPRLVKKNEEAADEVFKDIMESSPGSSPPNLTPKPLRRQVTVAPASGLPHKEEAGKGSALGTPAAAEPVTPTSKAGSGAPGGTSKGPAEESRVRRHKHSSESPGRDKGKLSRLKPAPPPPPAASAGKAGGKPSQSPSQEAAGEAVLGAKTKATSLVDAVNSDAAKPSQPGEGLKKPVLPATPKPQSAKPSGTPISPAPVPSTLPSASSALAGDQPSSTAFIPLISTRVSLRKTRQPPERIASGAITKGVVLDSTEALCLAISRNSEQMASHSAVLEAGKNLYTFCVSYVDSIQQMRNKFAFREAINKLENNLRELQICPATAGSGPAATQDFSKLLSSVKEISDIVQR
Description for HL-60: Cytotoxicity against human HL60 cells after 48 to 72 hrs by Alamar blue assay

One may read the IC50 as the concentration that gives 50% inhibition. For orientation: EC50 means the midpoint of the concentration-response curve. A low value points to an effect from little substance. Take `Nc1nc2ccc(C(=O)c3ccccc3)cc2[nH]1`: the outcome with Cryptosporidium parvum and in the test on Toxoplasma gondii was inactive. In addition, the IC50 was more than 10000 nM in test [1], 600 nM in test [2] and 230 nM in test [3]. The EC50 in “cells” and in the test with HL-60 was more than 30000 nM in each case.
For `CN1CCN(CCn2c(N)nc3ccc(C(=O)c4ccccc4)cc32)CC1`, the outcome with Cryptosporidium parvum and in the test with Toxoplasma gondii was inactive. In addition, the IC50 in test [4] is more than 10000 nM; in test [1], more than 10000 nM; in test [2] it was 36 nM; in test [3] it was 43 nM. Besides, the EC50 in “cells” and with HL-60 was more than 30000 nM throughout.
`Nc1nc2ccc(C(=O)c3ccccc3)cc2n1CC[C@@H]1CCCN1`: the result in the test on Cryptosporidium parvum and in the test with Toxoplasma gondii was inactive. Besides, the IC50 in test [4] was more than 10000 nM; in test [1], more than 10000 nM; in test [2] it was 30 nM; in test [3] it was 29 nM. Also, the EC50 in the test “cells” and in the test with HL-60 was more than 30000 nM throughout.
Consider `Nc1nc2ccc(C(=O)c3ccccc3)cc2n1CCC1CCNCC1`, for which the result in the test with Cryptosporidium parvum and with Toxoplasma gondii was inactive. Further, the IC50 is more than 10000 nM in test [4], more than 10000 nM in test [1], 17 nM in test [2] and 20 nM in test [3]. Also, the half-maximal effective concentration (EC50) in the test “cells” and in the test on HL-60 was more than 30000 nM each time.
Consider `CN1CCC(CCn2c(N)nc3ccc(C(=O)c4ccccc4)cc32)CC1`, for which the outcome in the test with Cryptosporidium parvum and in the test on Toxoplasma gondii was inactive. Further, the IC50 was more than 10000 nM in test [4], more than 10000 nM in test [1], 26 nM in test [2] and 30 nM in test [3]. The EC50 in “cells” and in the test on HL-60 was more than 30000 nM each time.
For the compound `NCCC(=O)Nc1nc2ccc(C(=O)c3ccccc3)cc2n1CC1CCNCC1`, the result in the test with Cryptosporidium parvum and with Toxoplasma gondii was inactive. For the same compound, the IC50 in test [1] is more than 10000 nM; in test [2] it was 860 nM; in test [3] it was 570 nM. In addition, the EC50 in the test “cells” and with HL-60 was more than 30000 nM throughout.
As to `Nc1nc2ccc(C(=O)c3ccccc3)cc2n1CC1CCNCC1`, the outcome in the test on Cryptosporidium parvum and in the test on Toxoplasma gondii was inactive. The IC50 in test [4] and in test [1] was more than 10000 nM throughout. Also, the EC50 in the test “cells” and with HL-60 was more than 30000 nM each time.
`O=C(NCCC1CCNCC1)Nc1nc2ccc(C(=O)c3ccccc3)cc2[nH]1`: the outcome in the test with Cryptosporidium parvum and with Toxoplasma gondii was inactive. The values for the IC50 in test [4], in test [2] and in test [3] were 100 nM, 180 nM and 130 nM, respectively. The EC50 in the test “cells” and in the test on HL-60 was more than 30000 nM throughout.
Take `COC(=O)Nc1nc2ccc(C(=O)c3ccccc3)cc2[nH]1` [MEBENDAZOLE]: the IC50 is 5000 nM in test [4], more than 10000 nM in test [1] and 670 nM in test [3].
As for `Nc1nc2ccc(C(=O)c3ccccc3)cc2n1C[C@@H]1CCCN1`, the result with Cryptosporidium parvum and in the test with Toxoplasma gondii was inactive. For the same compound, the IC50 stood at 260 nM in test [2] and 410 nM in test [3]. For the same compound, the EC50 in the test “cells” and in the test with HL-60 was more than 30000 nM each time.
